Consider one compound from US20180258381A1, “BIO-LAMINA BIOREACTORS AND METHODS OF MAKING AND USING THE SAME” (Oregon State University, priority 2015, published 2018).

Bounds are passed on as bounds.

Test [1] deals with methanol dehydrogenase (MDH). Kind of test: MeOH consumption of fresh sMMO expressing culture exposed to cPOH. It is filed as cell-based, M. trichosporium OB3b. Conditions: highest concentration of cPOH added with 1 mM MeOH. As to the method:
In the absence of CH4, sMMO expressing OB3b in alginate beads were incubated 18 h with cyclopropane (CP, FIG. 36A) and produced an oxidized product hypothesized to be cyclopropanol (cPOH). cPOH is more water soluble than CP, enabling removal of CP by purging the headspace with air (FIG. 36B). Work is progressing on the identification cPOH by mass spec analysis. […] Inhibition of MDH was confirmed by exposing fresh non-inhibited sMMO expressing M. trichosporium OB3b to cPOH (FIG. 36D).
In the absence of cPOH 1 mM MeOH was consumed <10 minutes, but when cPOH was added with 1 mM MeOH there was a concentration dependent effect on the rate of MeOH consumption. At low and medium cPOH concentrations, significant amounts of MeOH were consumed before the initial time points could be taken.

In the next test the test system is M. trichosporium OB3b. Kind of test: Chemostat inhibition with cyclopropanol. It is filed as cell-based. An excerpt:
In one embodiment, a seven-liter chemostat was used to grow a culture of M. trichosporium OB3b without copper present, therefore expressing sMMO. The temperature-controlled jacketed reactor has multiple input and output lines for gas and liquid feed, a paddle stirrer for agitation, sensors for continuous monitoring of pH and DO, and metered oxygen delivery tied to a DO concentration set-point. The reactor was inoculated with a dilute culture of M. trichosporium OB3b and operated in batch mode for approximately one month before continuous fluid flow was established. […] A second two-liter chemostat growing a culture of M. trichosporium OB3b with copper present, expressing pMMO, also was used.
Cyclopropanol was added under batch-flow conditions with no methane being fed to the reactor to limit methanol competition for MDH and increase the effectiveness of the inhibitor. Methanol accumulated in solution for about 24 hours and then was slowly washed from the reactor (FIG. 35A). The microbial methanol production rate in the chemostat peaked within 24 hours at about 0.5 mg/(L*h) and was essentially zero after two days (FIG. 35B).
The activity results remained stable at the above values for 5 days after inhibition with cyclopropanol present throughout. […] Complete shutdown of methane oxidation within the chemostat most likely occurred due to very successful inhibition of MDH resulting in a loss of reducing power needed for MMO operation. […] By day 8, methane utilization and oxygen uptake were restored in the chemostat and the biomass concentration increased back to pre-inhibition values. […] The chemostat inhibition experiment is being conducted again with modifications to the concentration of inhibitor and conditions of inhibition in attempt to produce conditions for continuous methanol production and to maintain higher methane oxidation rates throughout.
In the first two embodiments an estimated 75 μg/L cyclopropanol (cPOH) was added to the chemostat. Methanol production by M. trichosporium OB3b within the chemostat lasted less than 12 hours. Following initial methanol production, cell growth ceased and cells began washing out of the reactor. Once signs of washout were observed formate was added to the chemostat to a concentration of 10 mM. […] In subsequent attempts at methanol production, smaller cyclopropanol additions were used in an attempt to inhibit the organisms enough to produce methanol without disrupting their ability to grow fast enough to avoid washout. […] In each case, a peak in cumulative methanol production was reached followed by a decline indicating the recovery of the methanol oxidation capability of the culture (FIG. 43). […] Since the cyclopropanol concentrations used in these examples were below the detection limit of the analytical method, the cyclopropanol fate in the chemostat is uncertain in some embodiments.
Throughout each experiment specific oxygen utilization rate (SOUR) tests were conducted with samples from the chemostat as indicators of MDH and methane monooxygenase (MMO) activity (FIGS. 44A and 44B). Methanol SOURs indicate essentially immediate inhibition of MDH activity, although it took up to 1 hour to reach a minimum in activity. Significant methane inhibition is indicated in the methane SOURs and it occurs with essentially the same magnitude and time scale as the methanol SOUR results. The recovery of MDH indicated by SOUR tests correlated with the observed reduction in cumulative methanol production in the chemostat. […] A peak in DO concentration was reached first followed by a peak in pH and lastly methanol concentration. The increase in pH and DO is expected to be the result of incomplete methane oxidation and a subsequent reduction in CO2 production.

A further test relates to OB3b cells. Kind of test: Long term packed column experiment, cyclopropanol inhibition. Format: cell-based, M. trichosporium OB3b. On the procedure: In some examples, OB3b cells were harvested from the chemostats described herein to make alginate beads for a long term packed column experiment. Total cell mass within the column was 300 mg with and the column void space was 6 mL. The flow rates of a methane solution (2 mg/L) were varied and the inlet and outlet concentrations were measured for a methane consumption efficiency curve shown in FIG. 45A.
An increase in methane consumption with an increase in residence time was observed. The column was then inhibited with cyclopropanol (1/10 dilution) for 18 hours. A flow rate of 2 mL/min was used for all further testing. Methane consumption decreased from 0.21 μmol/hr to 0.15 μmol/hr after the inhibition, while 0.13 μmol/hr of methanol was produced. After 24 hours methanol production decreased to 0.06 μmol/hr and methane consumption increased to 0.24 μmol/hr. The inhibition process was repeated for 18 hours and methanol production evaluated under the same operating conditions. The maximum methanol production rates lasted about 3 hours, and then declined, while methane consumption was maintained. Overall, the column responded similarly to two inhibitions ran at constant flow for two weeks with little problem.

The test system of test [2] is M. trichosporium OB3b culture. Kind of test: Column packed with culture immobilized in alginate beads, cPOH inhibition. It is filed as cell-based. As to the method: In parallel with the BLP reactor runs, the response of methane consumption and MeOH production in a column packed with M. trichosporium OB3b culture immobilized in alginate beads (0.4 mg cell protein total) was evaluated. The column was incubated under batch conditions for 18 hours with cPOH, then quickly flushed with ˜10 pore volumes of dilute growth media, before dilute media flow containing ˜200 μM CH4 was begun at a rate of 41 ml/hour (FIG. 38). Over the course of day 1, 80±10% of influent CH4 was consumed and MeOH accumulated with an efficiency (MeOH produced/CH4 consumed) of 94±21%. […] To see if MeOH production could be renewed, the column was again exposed to cPOH for 18 hours as previously described. On days 3, 4, and 7, 66±8% of influent CH4 was consumed and MeOH accumulated with an efficiency of >90%.

The next test concerns MDH. Kind of test: cPOH inhibition of MDH of culture immobilized in alginate beads. Format: cell-based. An excerpt: The examples described above can be used to determine optimal cPOH concentrations and exposure time to maximize MeOH production. In some examples, cPOH inhibition is rapid and irreversible. In some examples, cPOH inhibited MDH of culture immobilized in alginate beads in less than 100 seconds, and MDH inhibition was maintained after alginate beads were rinsed to remove cPOH.

Setting [3] is: post-inhibition microbial activity sampling.
[4] abbreviates: after inhibition with cyclopropanol (1/10 dilution) for 18 hours, flow 2 mL/min.
The mark [5] stands for this setting: day 1, after 18 hours with cPOH.
Where [6] appears, read: days 3, 4, and 7, after second 18 hours cPOH exposure.

On to `OC1CC1` [cPOH, cyclopropanol], for which the “effect on rate of MeOH consumption” value in test [1] was “significantly slowed MeOH consumption”. Also, the “duration of methanol production” value with M. trichosporium OB3b (addition of 2-8 mg/L cyclopropanol) was 2 to 6 h. Moreover, the “effects on pH and DO concentrations within the chemostat” value with M. trichosporium OB3b (cPOH additions to reach 0.5 μg/L or lower) is “no discernable effects”. Besides, the “duration of methanol production within the chemostat” value in the test on M. trichosporium OB3b (estimated 75 μg/L cyclopropanol added) is reported as “less than 12 hours”. For the same compound, the “peak microbial methanol production rate in the chemostat” value in the test on M. trichosporium OB3b (peaked within 24 hours after cyclopropanol addition) is listed as “about 0.5 mg/(L*h)”. Also, in the test on M. trichosporium OB3b (setting [3]), the “reduction in batch methane oxidation rate” value stood at 94%, the “reduction in ethylene oxidation rate” value is given as 97%, the “reduction in formate-dependent oxygen uptake rate” value is 20-25% and the “reduction in methanol-dependent oxygen uptake rate” value was determined as 95%. Moreover, in the test with OB3b cells (24 hours after inhibition), the methane consumption was determined as 0.24 µmol/h and the methanol production is 0.06 µmol/h. In the test on OB3b cells (setting [4]), the methane consumption came out at 0.15 µmol/h and the methanol produced worked out at 0.13 µmol/h. Besides, in test [2] (setting [5]), the “MeOH accumulation efficiency (MeOH produced/CH4 consumed)” value is recorded as 94±21% and the “influent CH4 consumed” value is recorded as 80±10%. Besides, in test [2] (day 2), the MeOH accumulation result is “no MeOH accumulated” and the “influent CH4 consumed” value came out at 67±6%. Further, in test [2] (setting [6]), the “MeOH accumulation efficiency (MeOH produced/CH4 consumed)” value was > 90% and the “influent CH4 consumed” value came to 66±8%. The “time to inhibit MDH” value with MDH is “less than 100 seconds”.
